This note sets out measurements from patent US8222404B2, “[1,2,4]Thiadiazin-3-yl acetic acid compound and methods of making the acetic acid compound” (Anadys Pharmaceuticals, Inc., priority 2008, dated 2012).

In the assay the test system is HCV Huh-luc/neo-ET replicon cells. In words: Luciferase-Based HCV Replicon Assay (EC50 (1b)). As to conditions: Hepatitis C virus, 72 hours exposure, luciferase activity. Format: cell-based. The gist of the method: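 Replicon cells seeded, then exposed 24 h later to a compound concentration series in triplicate for 72 h. Luciferase luminescence read; % inhibition vs no-compound control, with 100 nM BILN-2061 as background, used to derive EC50 (1b).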
For orientation: Replicon systems follow genome replication, usually without infectious particles.
Broadly, the EC50 is the concentration needed to bring the measured effect to its halfway point. `CS(=O)(=O)NCc1csc2c1S(=O)(=O)N=C(C1=C(O)CC(C3CCCC3)N(Cc3ccc(F)cc3)C1=O)N2` (racemic) [Example 9, rac-N-{3-[6-Cyclopentyl-1-(4-fluoro-benzyl)-4-hydroxy-2-oxo-1,2,5,6-tetrahydro-pyridin-3-yl]-1,1-dioxo-1,4-dihydro-1λ^6-thieno[2,3-e][1,2,4]thiadiazin-7-ylmethyl}-methanesulfonamide] registered an EC50 of 100 to 1000 nM.
In the case of `CS(=O)(=O)NCc1csc2c1S(=O)(=O)N=C(C1=C(O)C3CCCCC3N(Cc3ccc(F)c(F)c3)C1=O)N2` (racemic) [Example 134, (rac-cis)-N-{3-[1-(3,4-Difluoro-benzyl)-4-hydroxy-2-oxo-1,2,4a,5,6,7,8,8a-octahydro-quinolin-3-yl]-1,1-dioxo-1,4-dihydro-1λ^6-thieno[2,3-e][1,2,4]thiadiazin-7-ylmethyl}-methanesulfonamide] it was greater than 1000 nM.
`CS(=O)(=O)NCc1csc2c1S(=O)(=O)N=C(C1=C(O)C3CCCCC3N(Cc3ccc(F)cc3Cl)C1=O)N2` (racemic) [Example 117, (rac-cis)-N-{3-[1-(2-Chloro-4-fluoro-benzyl)-4-hydroxy-2-oxo-1,2,4a,5,6,7,8,8a-octahydro-quinolin-3-yl]-1,1-dioxo-1,4-dihydro-1λ^6-thieno[2,3-e][1,2,4]thiadiazin-7-ylmethyl}-methanesulfonamide] registered an EC50 of 100 to 1000 nM.
With `CS(=O)(=O)NCc1csc2c1S(=O)(=O)N=C(C1=C(O)C3CCCCCC3N(Cc3ccsc3)C1=O)N2` (racemic) [Example 141, (rac-cis)-N-[3-(4-Hydroxy-2-oxo-1-thiophen-3-ylmethyl-2,4a,5,6,7,8,9,9a-octahydro-1H-cyclohepta[b]pyridin-3-yl)-1,1-dioxo-1,4-dihydro-1λ^6-thieno[2,3-e][1,2,4]thiadiazin-7-ylmethyl]-methanesulfonamide], the EC50 was greater than 1000 nM.
Turning to `CS(=O)(=O)NCc1csc2c1S(=O)(=O)N=C(C1=C(O)C3C4C=CC(C4)C3N(Cc3ccsc3)C1=O)N2` (racemic) [Example 64, (rac-di-exo)-N-[3-(6-Hydroxy-4-oxo-3-thiophen-3-ylmethyl-3-aza-tricyclo[6.2.1.0^2,7]undeca-5,9-dien-5-yl)-1,1-dioxo-1,4-dihydro-1λ^6-thieno[2,3-e][1,2,4]thiadiazin-7-ylmethyl]-methanesulfonamide], the EC50 is no more than 5 nM.
In the case of `COc1cc(CN2C(=O)C(C3=NS(=O)(=O)c4c(CNS(C)(=O)=O)csc4N3)=C(O)[C@@H]3[C@@H]4CC[C@@H](C4)[C@@H]32)ccc1F` [Example 43, N-{3-[(1S,2S,7R,8R)-3-(4-Fluoro-3-methoxy-benzyl)-6-hydroxy-4-oxo-3-aza-tricyclo[6.2.1.0^2,7]undec-5-en-5-yl]-1,1-dioxo-1,4-dihydro-1λ^6-thieno[2,3-e][1,2,4]thiadiazin-7-ylmethyl}-methanesulfonamide] it was 20 to 100 nM; in that of `CS(=O)(=O)NCc1csc2c1S(=O)(=O)N=C(C1=C(O)[C@@H]3CCC[C@@H]3N(Cc3ccc(F)cc3Cl)C1=O)N2` [Example 111, (4aR,7aS)-N-{3-[1-(2-Chloro-4-fluoro-benzyl)-4-hydroxy-2-oxo-2,4a,5,6,7,7a-hexahydro-1H-[1]pyrindin-3-yl]-1,1-dioxo-1,4-dihydro-1λ^6-thieno[2,3-e][1,2,4]thiadiazin-7-ylmethyl}-methanesulfonamide], 100 to 1000 nM.
Then `CS(=O)(=O)NCc1csc2c1S(=O)(=O)N=C(C1=C(O)[C@@H]3[C@@H]4CC[C@@H](C4)[C@@H]3N(Cc3ccc(F)c(F)c3)C1=O)N2` [Example 41, N-{3-[(1S,2S,7R,8R)-3-(3,4-Difluoro-benzyl)-6-hydroxy-4-oxo-3-aza-tricyclo[6.2.1.0^2,7]undec-5-en-5-yl]-1,1-dioxo-1,4-dihydro-1λ^6-thieno[2,3-e][1,2,4]thiadiazin-7-ylmethyl}-methanesulfonamide], with 5 to 20 nM; and `CCCC1CC(O)=C(C2=NS(=O)(=O)c3c(CNS(C)(=O)=O)csc3N2)C(=O)N1Cc1ccc(F)cc1` (racemic) [Example 5, rac-N-{3-[1-(4-Fluoro-benzyl)-4-hydroxy-2-oxo-6-propyl-1,2,5,6-tetrahydro-pyridin-3-yl]-1,1-dioxo-1,4-dihydro-1λ^6-thieno[2,3-e][1,2,4]thiadiazin-7-ylmethyl}-methanesulfonamide], with 100 to 1000 nM; and `CC(C)CCC1(C)CN(C2CCC2)C(=O)C(C2=NS(=O)(=O)c3c(CNS(C)(=O)=O)csc3N2)=C1O` (racemic) [Example 20, rac-N-{3-[1-Cyclobutyl-4-hydroxy-5-methyl-5-(3-methyl-butyl)-2-oxo-1,2,5,6-tetrahydro-pyridin-3-yl]-1,1-dioxo-1,4-dihydro-1λ^6-thieno[2,3-e][1,2,4]thiadiazin-7-ylmethyl {-methanesulfonamide], with 100 to 1000 nM.
`CS(=O)(=O)NCc1csc2c1S(=O)(=O)N=C(C1=C(O)[C@@H]3[C@H]4CC[C@H](C4)[C@@H]3N(CC3CCCCC3)C1=O)N2` [Example 101, N-[3-((1R,2S,7R,8S)-3-Cyclohexylmethyl-6-hydroxy-4-oxo-3-aza-tricyclo[6.2.1.0^2,7]undec-5-en-5-yl)-1,1-dioxo-1,4-dihydro-1λ^6-thieno[2,3-e][1,2,4]thiadiazin-7-ylmethyl]-methanesulfonamide] yielded an EC50 of 20 to 100 nM.
The molecule `CS(=O)(=O)NCc1csc2c1S(=O)(=O)N=C(C1=C(O)[C@@H]3[C@H]4CC[C@H](C4)[C@@H]3N(Cc3ccc(F)c(Cl)c3)C1=O)N2` [Example 37, N-{3-[(1R,2S,7R,8S)-3-(3-Chloro-4-fluoro-benzyl)-6-hydroxy-4-oxo-3-aza-tricyclo[6.2.1.0^2,7]undec-5-en-5-yl]-1,1-dioxo-1,4-dihydro-1λ^6-thieno[2,3-e][1,2,4]thiadiazin-7-ylmethyl}-methanesulfonamide] came in with an EC50 of 5 to 20 nM.
On to `CS(=O)(=O)NCc1csc2c1S(=O)(=O)N=C(C1=C(O)C3CCCCC3N(CC3CCCCC3)C1=O)N2` (racemic) [Example 104, (rac-cis)-N-[3-(1-Cyclohexylmethyl-4-hydroxy-2-oxo-1,2,4a,5,6,7,8,8a-octahydro-quinolin-3-yl)-1,1-dioxo-1,4-dihydro-1λ^6-thieno[2,3-e][1,2,4]thiadiazin-7-ylmethyl]-methanesulfonamide], for which the EC50 lay within 100 to 1000 nM.
As for `COc1cc(CN2C(=O)C(C3=NS(=O)(=O)c4c(CNS(C)(=O)=O)csc4N3)=C(O)[C@@H]3C4CCC(CC4)[C@@H]32)ccc1F` [Example 36, N-{3-[(2S,7R)-3-(4-Fluoro-3-methoxy-benzyl)-6-hydroxy-4-oxo-3-aza-tricyclo[6.2.2.0^2,7]dodec-5-en-5-yl]-1,1-dioxo-1,4-dihydro-1λ^6-thieno[2,3-e][1,2,4]thiadiazin-7-ylmethyl}-methanesulfonamide], the EC50 was no more than 5 nM.
Molecule `CC(=O)NCc1csc2c1S(=O)(=O)N=C(C1=C(O)[C@@H]3[C@H]4CC[C@H](C4)[C@@H]3N(Cc3ccc(F)cc3)C1=O)N2` [Example 35, N-{3-[(1R,2S,7R,8S)-3-(4-Fluoro-benzyl)-6-hydroxy-4-oxo-3-aza-tricyclo[6.2.1.0^2,7]undec-5-en-5-yl]-1,1-dioxo-1,4-dihydro-1λ^6-thieno[2,3-e][1,2,4]thiadiazin-7-ylmethyl}-acetamide] displayed an EC50 of 5 to 20 nM.
For the molecule `CS(=O)(=O)NCc1csc2c1S(=O)(=O)N=C(C1=C(O)[C@@H]3[C@H]4CC[C@H](C4)[C@@H]3N(Cc3ccc(F)cc3)C1=O)N2` [Example 1, (1R,2S,7R,8S)—N-{3-[3-(4-Fluoro-benzyl)-6-hydroxy-4-oxo-3-aza-tricyclo[6.2.1.0^2,7]undec-5-en-5-yl]-1,1-dioxo-1,4-dihydro-1λ^6-thieno[2,3-e][1,2,4]thiadiazin-7-ylmethyl}-methanesulfonamide], the EC50 is no more than 5 nM.
In the case of `COc1ccc(CN2C(=O)C(C3=NS(=O)(=O)c4c(CNS(C)(=O)=O)csc4N3)=C(O)C3C4CCC(O4)C32)c(OC)c1` (racemic) [Example 75, (rac-di-exo)-N-{3-[3-(2,4-Dimethoxy-benzyl)-6-hydroxy-4-oxo-11-oxa-3-aza-tricyclo[6.2.1.0^2,7]undec-5-en-5-yl]-1,1-dioxo-1,4-dihydro-1λ^6-thieno[2,3-e][1,2,4]thiadiazin-7-ylmethyl}-methanesulfonamide] it was greater than 1000 nM; in that of `CS(=O)(=O)NCc1csc2c1S(=O)(=O)N=C(C1=C(O)[C@@H]3[C@@H]4CC[C@@H](C4)[C@@H]3N(C3CCCCC3)C1=O)N2` [Example 98, N-[3-((1S,2S,7R,8R)-3-Cyclohexyl-6-hydroxy-4-oxo-3-aza-tricyclo[6.2.1.0^2,7]undec-5-en-5-yl)-1,1-dioxo-1,4-dihydro-1λ^6-thieno[2,3-e][1,2,4]thiadiazin-7-ylmethyl]-methanesulfonamide], 100 to 1000 nM; in that of `CS(=O)(=O)NCc1csc2c1S(=O)(=O)N=C(C1=C(O)C3C4CCC(C5CC54)C3N(Cc3ccc(F)cc3)C1=O)N2` (racemic) [Example 22, (rac-di-endo)-N-{3-[3-(4-Fluoro-benzyl)-6-hydroxy-4-oxo-3-aza-tetracyclo[6.3.2.0^2,7.0^9,11]tridec-5-en-5-yl]-1,1-dioxo-1,4-dihydro-1λ^6-thieno[2,3-e][1,2,4]thiadiazin-7-ylmethyl}-methanesulfonamide], no more than 5 nM.
`CS(=O)(=O)NCc1csc2c1S(=O)(=O)N=C(C1=C(O)C3CCCCCC3N(Cc3ccccc3)C1=O)N2` (racemic) [Example 136, (rac-cis)-N-[3-(1-Benzyl-4-hydroxy-2-oxo-2,4a,5,6,7,8,9,9a-octahydro-1H-cyclohepta[b]pyridin-3-yl)-1,1-dioxo-1,4-dihydro-1λ^6-thieno[2,3-e][1,2,4]thiadiazin-7-ylmethyl]-methanesulfonamide] yielded an EC50 of 20 to 100 nM.
In the case of `CS(=O)(=O)NCc1csc2c1S(=O)(=O)N=C(C1=C(O)[C@@H]3[C@@H]4CC[C@@H](C4)[C@@H]3N(Cc3ccc(F)cc3)C1=O)N2` [Example 89, N-{3-[(1S,2S,7R,8R)-3-(4-Fluoro-benzyl)-6-hydroxy-4-oxo-3-aza-tricyclo[6.2.1.0^2,7]undec-5-en-5-yl]-1,1-dioxo-1,4-dihydro-1λ^6-thieno[2,3-e][1,2,4]thiadiazin-7-ylmethyl}-methanesulfonamide] it was no more than 5 nM.
